Results as given in patent publication US12325708B2, “Adenosine 2 receptor antagonists” (Nektar Therapeutics, priority 2019, dated 2025).
pKi: −log10 of the molar value.

Assays:
[1] = Plasma pharmacokinetic parameters following intravenous (IV) or oral (PO) administration in rats; assay type: in vivo, Sprague-Dawley rats; settings: male, Sprague-Dawley, rat, plasma; for AUC / bioavailability: 2.5 mg/kg; for clearance: intravenous, 0.5 mg/kg
Procedure: (§1) Adult male Sprague-Dawley rats (230-250 g) (Charles River Labs, Hollister, CA) were utilized for the study. There were 2 rats/group. All animals were food fasted overnight with water provided ad libitum at all times. Compounds 1, 4, 14 and 19 were synthesized as described in Examples 2, 17, 7, and 12, respectively, and formulated in injectable water.
(§2) The morning of each dosing, individual doses were calculated based on current body weights on the day of dosing. The jugular vein cannula (JVC) and the carotid artery cannula (CAC) were externalized, flushed with HEP/saline (10 IU/mL HEP/mL saline), plugged, and labeled to identify the jugular vein and the carotid artery. The IV group animals were dosed at 0.5 mg/kg of Compound 1, 4, 14 or 19, respectively, intravenously via the jugular vein, while the PO dose was administered 2.5 mg/kg of Compound 1, 4, 14 or 19, respectively, orally via gavage. For the IV group, immediately following the dose of test article, the dead volume of the catheter was flushed with 0.9% saline to ensure the animals received the full dose.
Approximately 0.2 mL of blood was collected per time point from JVC. Blood samples were collected at 2 (IV group only), 5, 15, 30, 60, 120, 240, 360, 420 (Compound 19 only), 480, 720 (Compound 19 only), and 1440 minutes via the CAC and transferred immediately into K2EDTA coated tubes pre-loaded 2 μl with quenching cocktail and placed on wet ice. The samples were centrifuged within 30 min after collection at 10,000 RPM for 5 minutes and the resulting plasma was separated. Plasma was transferred into microfuge tubes and placed on dry ice immediately. The plasma samples were stored at approximately −70° C. until bioanalysis.
Plasma samples were extracted by protein precipitation with acetonitrile containing 0.1% formic acid and doxepin for Compound 1 (available from Sigma-Aldrich) or SCH58261 for Compounds 4, 14 and 19 (available from Sigma-Aldrich) as an internal standard. Following vortex and centrifugation, supernatant was diluted 3-fold with water containing 0.1% formic acid and analyzed by LC-MS/MS.
Pharmacokinetic parameters (PK) were determined by non-compartmental analysis (NCA) using Phoenix 64 WinNonlin (version 8) and Dotmatics (version 5.0). Nominal doses and time points were used for the analysis.
The following PK parameters were estimated using plasma concentration-time profile of each animal with the results presented in Table 3: • AUCinf Area under the concentration-time from zero to time infinity • AUClast Area under the concentration-time from zero to time of last concentration value • F Bioavailability • CL Total body clearance • Cmax Maximum (peak) concentration • MRTlast Mean residence time to last observable concentration • Tmax Time to reach maximum or peak concentration following administration • Vss Volume of distribution at steady state
as §1, with “Compound 1 was” for “Compounds 1, 4, 14 and 19 were”, “Example 2” for “Examples 2, 17, 7, and 12, respectively,”
as §2, with “1” for “1, 4, 14 or 19, respectively,”
Approximately 0.2 mL of blood was collected per time point from JVC. […]

[2] = Brain-to-plasma ratio (B/P) after administration; assay type: in vivo, Sprague-Dawley rats; settings: Sprague-Dawley, rat, brain-to-plasma ratio at 1 h
From the text: A similar unexpected result was obtained when the phenyl ring present on Compound 1 was replaced with a halogen substituted pyridine. The halogen was previously introduced on the phenyl ring with the aim of blocking a possible metabolic soft-spot, with similar results observed as for Compound 1 in terms of exposure, clearance and bioavailability (Compound 10 and Compound 15). The substituted pyridine ring was designed to modulate the lipophilicity and polar surface area, as well as to address metabolic soft-spot concerns. Clearance and bioavailability parameters remain similar between substituted phenyl and pyridine (Compound 4 and Compound 14) analogs, which span a range in cLogP of 2.7-3.2. It was therefore surprising the significant improvement in exposure and clearance observed for the more lipophilic Compound 19. […] A compound is commonly deemed to be a brain penetrant if the brain-to-blood/plasma concentration ratio (B/P) is greater than 0.04 using methods as known in the art (Schaffer, Annual Reports in Medicinal Chemistry, 45:55-70, 2010).
Plasma pharmacokinetic parameters were determined following oral (PO) administration of further compounds essentially as described in Example 28 with the results shown in Table 6.

A2A receptor = target: T1, A2A receptor (Homo sapiens, UniProt P29274); assay: Radioligand receptor binding assay, A2A receptor; settings: cell membranes overexpressing A2A receptor, read-out: Potency Ki A2A
T1 construct: purchased
Procedure: (§3) Using conventional receptor binding assay techniques, Compounds 1-24 were assayed to determine binding activity at the A2A, A1, and A3 receptors with the results shown in Table 7.
(§4) Receptor binding affinity of Compounds 1-24 was measured using radioligand binding assays using commercially obtained cell membranes prepared from cell lines overexpressing the A2A, A1, or A3 receptors. Briefly, cell membrane preparations from cells expressing the specific receptor were mixed with the appropriate [^3H]-labeled tracer for the specific receptor and the test compound or a known inhibitor of receptor-ligand binding. Following 60 min incubation at room temperature to allow receptor-ligand complex formation, the complexes were collected by filtration, washed with 50 mM Tris HCl (pH 7.5) to remove radioligand that was not receptor-bound, and the remaining radioactivity determined by liquid scintillation counting. Specific radioligand binding was calculated for each test compound concentration and IC50 values were determined by non-linear, regression analysis. Inhibition constants (Ki) were calculated using the equation of Cheng and Prusoff using the observed IC50 of the tested compound, the concentration of radioligand employed in the assay and the experimentally determined values for the Kd of the ligand.

A1 receptor = target: T2, A1 receptor (Homo sapiens, UniProt P30542); assay: Radioligand receptor binding assay, A1 receptor; settings: cell membranes overexpressing A1 receptor, read-out: Potency Ki A1
T2 construct: purchased
T2 sequence (P30542 1-326): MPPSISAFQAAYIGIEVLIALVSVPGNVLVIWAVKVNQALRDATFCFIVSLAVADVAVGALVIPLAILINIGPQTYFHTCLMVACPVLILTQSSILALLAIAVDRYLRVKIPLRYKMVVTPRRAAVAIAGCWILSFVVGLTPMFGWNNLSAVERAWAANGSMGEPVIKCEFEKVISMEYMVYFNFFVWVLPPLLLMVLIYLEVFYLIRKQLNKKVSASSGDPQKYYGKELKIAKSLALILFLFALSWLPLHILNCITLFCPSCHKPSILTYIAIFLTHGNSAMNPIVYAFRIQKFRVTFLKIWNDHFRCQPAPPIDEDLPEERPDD
Procedure: as §3, §4

mouse CT-26 cells = assay: Antitumor activity in CT26 subcutaneous tumor model in Balb/c mice; assay type: in vivo; settings: day 13 vs vehicle; 30 mg/kg qdx9 PO + anti-PD1 antibody 200 μg/mouse q2dx4 IP
Procedure: Mice used were ˜ 6-8 week-old female Balb/c mice subcutaneously inoculated with 2×10^6 mouse CT-26 cells. […] The mice were divided into six treatment groups as follows: vehicle (qdx9) PO+IP, Compound 1 (10 mg/kg, qdx9)+an exemplary anti-mouse PD1 (CD279) antibody (BioXCell) (200 μg/mouse, q2dx4); Compound 1 (30 mg/kg, qdx9)+anti-PD1 antibody (200 μg/mouse, q2dx4), Compound 1 (100 mg/kg)+anti-PD1 antibody (200 μg/mouse, q2dx4), anti-PD1 antibody (200 μg/mouse, q2dx4), or preladenant (30 mg/kg, qdx9)+anti-PD1 antibody (200 μg/mouse, q2dx4). Compound 1 and preladenant were administered orally. The anti-PD1 antibody was administered IP. Body weight was measured daily. Tumor growth of the CT26 cells was monitored three times per week by measuring the tumor volume size using a caliper with the results shown in FIG. 5.

[3] = Table 6, oral (PO) administration essentially as described in Example 28
[4] = Table 6, essentially as described in Example 28
[5] = po, Table 6, oral (PO) administration essentially as described in Example 28
[6] = oral, Table 2 summary of Example 27, values marked 1 are the average of experiments

T1 sequence (P29274 whole entry): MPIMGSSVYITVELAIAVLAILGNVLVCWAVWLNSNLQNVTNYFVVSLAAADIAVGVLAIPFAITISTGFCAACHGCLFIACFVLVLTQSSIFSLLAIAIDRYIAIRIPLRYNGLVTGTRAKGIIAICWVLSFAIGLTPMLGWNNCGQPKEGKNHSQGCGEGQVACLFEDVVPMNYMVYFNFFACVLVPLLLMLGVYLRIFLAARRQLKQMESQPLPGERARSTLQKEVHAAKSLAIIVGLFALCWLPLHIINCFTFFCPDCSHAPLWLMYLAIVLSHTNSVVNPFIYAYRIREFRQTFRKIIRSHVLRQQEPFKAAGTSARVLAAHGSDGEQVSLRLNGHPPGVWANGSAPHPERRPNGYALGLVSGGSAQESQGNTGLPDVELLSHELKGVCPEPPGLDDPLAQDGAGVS

Row | AUC [1, 3] [ng·h/mL] | clearance [1, 4] [mL/min/kg] | bioavailability [1, 5] [%] | Kp at 1 h ([2]; oral, 2.5 mg/kg, Table 6) | pKi (A2A receptor) | pKi (A1 receptor) | clearance ([1]; Table 2 summary of Example 27, values marked 1 are the average of experiments) [mL/min/kg] | AUC [1, 6] [ng·h/mL] | bioavailability [1, 6] [%] | Kp at 1 h ([2]; Table 2) | Compound | % TGI (mouse CT-26 cells)
1 | 1170 | 17 | 50 | 0.05 | 8.22 | < 4.00 |  |  |  |  | [2H]C([2H])([2H])OC([2H])([2H])C([2H])([2H])Oc1ccc(N2C([2H])([2H])C([2H])([2H])N(C([2H])([2H])C([2H])([2H])N(c3cc4nc(-c5ncco5)nn4c(N)n3)C([2H])([2H])[2H])C([2H])([2H])C2([2H])[2H])cc1 [Compound 20, N^7-(^2H3)methyl-N^7-[2-{4-[4-({2-[(^2H3)methyloxy](^2H4)ethyl}oxy)phenyl](^2H8)piperazin-1-yl}(^2H4)ethyl]-2-(1,3-oxazol-2-yl)[1,2,4]triazolo[1,5-c]pyrimidine-5,7-diamine] | 
2 | 336 | 52 | 42 | 0.08 | 8.05 | 4.81 |  |  |  |  | COCCOc1ccc(N2CCN(CCN(C)c3cc4nc(-c5ncco5)nn4c(N)n3)CC2)nc1 [Compound 23, N^7-(2-{4-[5-(2-methoxyethoxy)pyridin-2-yl]piperazin-1-yl}ethyl)-N^7-methyl-2-(1,3-oxazol-2-yl)[1,2,4]triazolo[1,5-c]pyrimidine-5,7-diamine] | 

Further lines, the compound ahead of its results:

Row | Compound | AUC [1, 3] [ng·h/mL] | clearance [1, 4] [mL/min/kg] | bioavailability [1, 5] [%] | Kp at 1 h ([2]; oral, 2.5 mg/kg, Table 6) | pKi (A2A receptor) | pKi (A1 receptor) | clearance ([1]; Table 2 summary of Example 27, values marked 1 are the average of experiments) [mL/min/kg] | AUC [1, 6] [ng·h/mL] | bioavailability [1, 6] [%] | Kp at 1 h ([2]; Table 2) | % TGI (mouse CT-26 cells)
3 | COCCOc1cnc(N2CCN3[C@H](CC[C@H]3CN(C)c3cc4nc(-c5ncco5)nn4c(N)n3)C2)c(F)c1 [Compound 21, N^7—({(6S,8aR)-2-[3-fluoro-5-(2-methoxyethoxy)pyridin-2-yl]octahydropyrrolo[1,2-a]pyrazin-6-yl}methyl)-N^7-methyl-2-(1,3-oxazol-2-yl)[1,2,4]triazolo[1,5-c]pyrimidine-5,7-diamine] | 429 | 30 | 31 | 0.05 | 8.10 | 5.51 |  |  |  |  | 
4 | COCCOc1ncc(N2CCN(CCN(C)c3cc4nc(-c5ncco5)nn4c(N)n3)CC2)cc1C(F)(F)F [Compound 22, N^7-(2-{4-[6-(2-methoxyethoxy)-5-(trifluoromethyl)pyridin-3-yl]piperazin-1-yl}ethyl)-N^7-methyl-2-(1,3-oxazol-2-yl)[1,2,4]triazolo[1,5-c]pyrimidine-5,7-diamine] | 280 | 38 | 25 | 0.03 | 7.96 | 5.50 |  |  |  |  | 
5 | COCCOc1ccc(N2CCN(CCNc3cc4nc(-c5ncco5)nn4c(N)n3)CC2)cc1 [Compound 24, N^7-(2-{4-[4-(2-methoxyethoxy)phenyl]piperazin-1-yl}ethyl)-2-(1,3-oxazol-2-yl)[1,2,4]triazolo[1,5-c]pyrimidine-5,7-diamine] | 1070 | 28 | 70 | 0.11 | 7.37 | < 5.00 |  |  |  |  | 
6 | COCCOc1ccc(N2CCN(CCN(C)c3cc4nc(-c5ccco5)nn4c(N)n3)CC2)cc1 [Reference compound, 2-(furan-2-yl)-N^7-(2-(4-(4-(2-methoxyethoxy)phenyl)piperazin-1-yl)ethyl)-N^7-methyl-[1,2,4]triazolo[1,5-c]pyrimidine-5,7-diamine, reference compound] |  |  |  |  | 8.59 | 5.90 | 34 | 408 | 34 | 0.17 | 
7 | Preladenant [reference compound] |  |  |  |  |  |  |  |  |  |  | 56^3%
